Source: patent US8232407B2, “Nitrogenous heterocyclic compounds with insecticidal activity, and the preparation and use thereof” (East China University of Science and Technology, priority 2008, dated 2012)

What was measured:
Assay type in all cases: in vivo
Details in all cases: in vivo
[1] = tested on: Aphis craccivoral; experiment: Insecticidal activities to aphids, immersion method
Protocol: (1): Insecticidal Activities to Aphids
Aphis (Aphis craccivoral), which belongs to Homoptera and has a piercing-sucking mouthpart, is a common insect for agricultural plant. Aphis craccivoral was tested by immersion method.
Procedure: exactly weighed various samples were independently added to N,N-dimethylformamide to form 10 g/L stock solutions. The stock solutions were diluted with 0.2 mL/L aqueous Triton X-100 solution to a concentration of 500 ppm. After stably sucking on bean sprout, the wingless adult aphis together with bean sprout were dipped into 500 ppm dilution, taken out after 5 seconds, and the excess dilution was sucked off with bibulous paper. The treated wingless adult aphis was incubated in clean vessel at a constant temperature of 23° C. Each concentration was repeated for 3 times and the control group was treated with 0.2mL/L aqueous Triton X-100 solution. The number of killed aphis was counted after 24 hours and the mortality was to calculated according to the following formula:
(§1) Mortality (%)=(the number of the survival aphis in control group−the number of the survival aphis in the treatment group)/the number of the survival aphis in control group×100%

[2] = tested on: Nilaparvata lugens; experiment: Insecticidal activities to plant hopper, spraying method
Protocol: as §1
(2): Insecticidal Activities to Plant hopper
Plant hopper (Nilaparvata lugens), which belongs to Homoptera and has a piercing-sucking mouthpart, is a common insect for agricultural plant. Nilaparvata lugens was tested by spraying method.
Procedure: the test compound was exactly formulated with acetone to form solutions having concentrations of 500, 250, 100, 50, 25, 12.5, 6.25, 3.13, 1.57 and 0.79 ppm, respectively. Aqueous acetone solution was used as control. Each treatment was repeated for 3 tumblers (3 times). Two ml of solution was sprayed uniformly to each tumbler with a mini manual sprayer. 10 insects were introduced to every basin 6 hours before spraying. Three series of experiments were conducted. The number of killed insects was counted after 24 hours to calculate the mortality according to the above mentioned formula.

[3] = tested on: Pseudaletia separate Walker; experiment: Insecticidal activities to armyworm, leaf dipping and feeding
Protocol: as §1
(3): Insecticidal Activities to Armyworm
Armyworm (Pseudaletia separate Walker) was tested by the way of leaf dipping and feeding. The test compound was exactly formulated with acetone into solutions having concentrations of 500, 250, 100, 50, 25, 12.5, 6.25, 3.13 and 1.57 ppm, respectively. Aqueous acetone solution was used as control. Fresh maize leaves were immersed in the solution for 3 seconds, dried at room temperature, and fed to the tested insects. Each treatment was tested with 10 insects and repeated for 3 tumblers (3 times). The number of killed insects was counted after 24 hours to calculate the mortality according to the above mentioned formula.

[4] = tested on: Plutella xylostella; experiment: Insecticidal activities to diamondback moth, feeding dipped leaves
Protocol: as §1
(4): Insecticidal Activities to Diamondback Moth
Diamondback moth (Plutella xylostella) was tested by the way of feeding dippedleaves. Fresh cabbage leaves were immersed in above mentioned solution for 3 seconds, dried at room temperature, and fed to the tested insects. Each treatment was tested with 10 insects and repeated for 3 tumblers (3 times), while water was used as control. The number of killed insects was counted after 24 hours to calculate the mortality according to the above mentioned formula.

SMILES | Aphis craccivoral Mortality (%) 500 ppm [1] [%] | Nilaparvata lugens Mortality (%) 500 ppm [2] [%] | Pseudaletia separate Walker Mortality (%) 500 ppm [3] [%] | Plutella xylostella Mortality (%) 500 ppm [4] [%]
CC(c1ccc(Cl)nc1)N1CCN=C1C(=Cc1ccco1)[N+](=O)[O-] (racemic) [Compound 121] | 100 | 100 | 100 | 56
CC(c1ccc(Cl)nc1)N1CCN=C1C(=Cc1ccoc1)[N+](=O)[O-] (racemic) [Compound 123] | 100 | 100 | 100 | 100
CC(c1ccc(Cl)nc1)N1CCN=C1C(=Cc1ccc([N+](=O)[O-])o1)[N+](=O)[O-] (racemic) [Compound 124] | 100 | 100 | 100 | 100
CC(c1ccc(Cl)nc1)N1CCN=C1C(=Cc1ccc(Cl)o1)[N+](=O)[O-] (racemic) [Compound 125] | 100 | 100 | 98 | 100
CC(c1ccc(Cl)nc1)N1CCN=C1C(=Cc1ccc(Br)o1)[N+](=O)[O-] (racemic) [Compound 126] | 100 | 100 | 100 | 100
CC(c1ccc(Cl)nc1)N1CCN=C1C(=Cc1cccs1)[N+](=O)[O-] (racemic) [Compound 127] | 100 | 100 | 100 | 100
CC(c1ccc(Cl)nc1)N1CCN=C1C(=Cc1ccsc1)[N+](=O)[O-] (racemic) [Compound 128] | 100 | 100 | 100 | 100
CC(c1ccc(Cl)nc1)N1CCN=C1C(=Cc1ccc([N+](=O)[O-])s1)[N+](=O)[O-] (racemic) [Compound 129] | 100 | 100 | 100 | 80
CC(c1ccc(Cl)nc1)N1CCN=C1C(=Cc1ccc(Cl)s1)[N+](=O)[O-] (racemic) [Compound 130] | 100 | 100 | 100 | 76
CC(c1ccc(Cl)nc1)N1CCN=C1C(=Cc1ccc[nH]1)[N+](=O)[O-] (racemic) [Compound 131] | 100 | 100 | 100 | 63
CCC(c1ccc(Cl)nc1)N1CCN=C1C(=Cc1ccc[nH]1)[N+](=O)[O-] (racemic) [Compound 132] | 73 | 84 | 89 | 99
CC(=C(C1=NCCN1C(C)c1ccc(Cl)nc1)[N+](=O)[O-])c1ccco1 (racemic) [Compound 133] | 48 | 50 | 90 | 68
CC(=C(C1=NCCN1C(C)c1ccc(Cl)nc1)[N+](=O)[O-])c1ccoc1 (racemic) [Compound 134] | 38 | 51 | 52 | 46
CC(=C(C1=NCCN1C(C)c1ccc(Cl)nc1)[N+](=O)[O-])c1ccc([N+](=O)[O-])o1 (racemic) [Compound 135] | 56 | 63 | 45 | 56
CC(=C(C1=NCCN1C(C)c1ccc(Cl)nc1)[N+](=O)[O-])c1ccc(Cl)o1 (racemic) [Compound 136] | 100 | 100 | 100 | 100
CCN(Cc1cnc(Cl)s1)C(=NC)C(=Cc1ccc(Cl)s1)[N+](=O)[O-] [Compound 230] | 75 | 50 |  | 
CCN(Cc1cnc(Cl)s1)C(=NC)C(=Cc1ccc[nH]1)[N+](=O)[O-] [Compound 231] | 37 | 76 |  | 
CN=C(C(=Cc1ccco1)[N+](=O)[O-])N(C)Cc1ccc(Cl)nc1 [Compound 232] | 96 | 56 |  | 
CN=C(C(=Cc1ccoc1)[N+](=O)[O-])N(C)Cc1ccc(Cl)nc1 [Compound 233] | 80 | 86 |  | 
CN=C(C(=Cc1ccc(Cl)o1)[N+](=O)[O-])N(C)Cc1ccc(Cl)nc1 [Compound 234] | 37 | 44 |  | 
CN=C(C(=Cc1ccc(Br)o1)[N+](=O)[O-])N(C)Cc1ccc(Cl)nc1 [Compound 235] | 91 | 86 |  | 
CN=C(C(=Cc1cccs1)[N+](=O)[O-])N(C)Cc1ccc(Cl)nc1 [Compound 236] | 82 | 79 |  | 
CN=C(C(=Cc1ccsc1)[N+](=O)[O-])N(C)Cc1ccc(Cl)nc1 [Compound 237] | 87 | 98 |  | 
CN=C(C(=Cc1ccc([N+](=O)[O-])s1)[N+](=O)[O-])N(C)Cc1ccc(Cl)nc1 [Compound 238] | 91 | 98 |  | 
CN=C(C(=Cc1ccc(Cl)s1)[N+](=O)[O-])N(C)Cc1ccc(Cl)nc1 [Compound 239] | 58 | 34 |  | 
CN=C(C(=Cc1ccc[nH]1)[N+](=O)[O-])N(C)Cc1ccc(Cl)nc1 [Compound 240] | 77 | 68 |  | 
CCN(Cc1ccc(Cl)nc1)C(=NC)C(=Cc1ccco1)[N+](=O)[O-] [Compound 241] | 68 | 76 |  | 
CCN(Cc1ccc(Cl)nc1)C(=NC)C(=Cc1ccoc1)[N+](=O)[O-] [Compound 242] | 100 | 100 |  | 
CCN(Cc1ccc(Cl)nc1)C(=NC)C(=Cc1ccc[nH]1)[N+](=O)[O-] [Compound 243] | 96 | 100 |  | 
